Test results reported in patent US8153679B2, “Radiolabelled inhibitors of the glycine 1 transporter” (Hoffmann-La Roche Inc., priority 2008, dated 2012).

What was measured:
GlyT1 transporter [1] = molecular target: T1, GlyT1 transporter (Mus musculus, UniProt P28571); test: GlyT1 transporter inhibition in vitro (test method of WO2006/082001); type: cell-based; conditions: unlabelled compounds
T1 sequence (P28571 1-651 isoform P28571-2): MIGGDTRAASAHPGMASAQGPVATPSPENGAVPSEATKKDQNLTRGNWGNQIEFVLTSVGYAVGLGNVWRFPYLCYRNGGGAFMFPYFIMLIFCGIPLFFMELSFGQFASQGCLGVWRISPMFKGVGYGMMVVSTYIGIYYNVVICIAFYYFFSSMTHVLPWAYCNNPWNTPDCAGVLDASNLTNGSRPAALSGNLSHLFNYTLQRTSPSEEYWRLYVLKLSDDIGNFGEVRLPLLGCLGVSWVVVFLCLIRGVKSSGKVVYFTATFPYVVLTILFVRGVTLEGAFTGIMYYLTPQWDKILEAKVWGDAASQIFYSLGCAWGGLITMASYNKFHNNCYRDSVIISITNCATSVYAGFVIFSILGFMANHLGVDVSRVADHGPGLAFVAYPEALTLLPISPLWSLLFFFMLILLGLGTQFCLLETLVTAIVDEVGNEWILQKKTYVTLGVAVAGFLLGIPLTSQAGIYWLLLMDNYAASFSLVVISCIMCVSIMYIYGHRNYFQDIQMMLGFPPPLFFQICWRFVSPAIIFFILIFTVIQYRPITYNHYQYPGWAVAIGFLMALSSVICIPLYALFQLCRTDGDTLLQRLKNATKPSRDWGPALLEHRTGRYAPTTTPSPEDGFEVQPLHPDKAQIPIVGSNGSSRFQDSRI
Text: The test method is described in WO2006/082001.

[2] = tested on: glycine transporter 1 (GlyT1); test: In vivo PET imaging in the baboon; design: species or system baboon (papio anubis); conditions: intravenous 1 minute bolus, PET 0 to 90 minutes
Experimental: 1) PET imaging with [^11C-][2-Isopropoxy-5-methanesulfonyl-phenyl)-[5-(tetrahydro-pyran-4-yl)-1,3-dihydro-isoindol-2-yl]-methanone] and [^11C]-5-Methanesulfonyl-2-((S)-2,2,2-trifluoro-1-methyl-ethoxy)-phenyl]-[5-(tetrahydro-pyran-4-yl)-1,3-dihydro-isoindol-2-yl]-methanone
(§1) The experiments described below were carried out in male baboons (papio anubis). Animals were fasted for 12 hours prior to the PET study. Baboons were initially sedated intramuscularly with Ketamine hydrochloride with restraint dosages of 5-7 mg/kg to achieve a light plane of anesthesia and then maintained on continuous Propofol intravenous infusion @ […] (DIPRIVAN® Injectable Emulsion). Circulatory volume was maintained by infusion of isotonic saline. A femoral arterial catheter was inserted for blood sampling. Physiological vital signs including heart rate, ECG, blood pressure (Spacelabs Monitor, Issaquah, Wash., USA) and oxygen saturation (Nellcor OxiMax® N-600™ Pulse Oximeter, Pleasanton, Calif., USA) were continuously monitored throughout the study. The animal was positioned in an ECAT HRRT® brain PET scanner (High Resolution Research Tomograph, CPS Innovations, Inc., Knoxville, Tenn.). The head of the animal was fitted with a thermoplastic mask that was attached to a head holder for reproducible fixation. […]

GlyT1 transporter [3] = molecular target: T2, GlyT1 transporter (Rattus norvegicus, UniProt P28572); test: Autoradiographic studies in rat brain sections; type: binding; conditions: for distribution of the binding sites in rat brain sections: radiotracer 1 nM, 60 min, 37° C., high densities in thalamus, brainstem, pons, medulla oblungata, cerebellum, lower in striatum, cortex, hippocampus
T2 construct: Ten μm-thick sagittal sections were cut in a Cryostat and thaw-mounted on adhesion glass slides; from tissue; host or cells: rat brain, sagittal sections (male Wistar rats)
T2 sequence (P28572 1-638): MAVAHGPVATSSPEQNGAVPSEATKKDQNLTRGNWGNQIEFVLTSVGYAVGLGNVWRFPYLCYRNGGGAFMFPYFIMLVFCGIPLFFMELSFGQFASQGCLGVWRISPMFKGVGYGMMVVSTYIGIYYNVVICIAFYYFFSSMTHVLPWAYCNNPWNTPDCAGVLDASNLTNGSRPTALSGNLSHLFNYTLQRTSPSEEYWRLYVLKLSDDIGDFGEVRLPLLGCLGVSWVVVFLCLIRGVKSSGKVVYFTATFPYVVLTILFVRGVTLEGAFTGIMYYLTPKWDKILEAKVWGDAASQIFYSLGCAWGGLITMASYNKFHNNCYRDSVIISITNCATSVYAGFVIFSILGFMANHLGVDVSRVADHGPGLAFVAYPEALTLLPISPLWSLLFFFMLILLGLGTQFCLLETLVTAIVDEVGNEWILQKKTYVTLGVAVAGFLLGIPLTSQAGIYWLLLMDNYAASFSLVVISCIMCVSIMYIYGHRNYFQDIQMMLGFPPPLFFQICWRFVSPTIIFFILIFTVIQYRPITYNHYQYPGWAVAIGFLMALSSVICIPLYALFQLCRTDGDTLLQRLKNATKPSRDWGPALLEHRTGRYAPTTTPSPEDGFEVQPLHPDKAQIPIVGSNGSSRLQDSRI
Text: Autoradiographic Studies in Rat Brain
The distribution of the binding sites of [^3H][5-Methanesulfonyl-2-((S)-2,2,2-trifluoro-1-methyl-ethoxy)-phenyl]-[5-(tetrahydro-pyran-4-yl)-1,3-dihydro-isoindol-2-yl]-methanone and [^3H][2-Isopropoxy-5-methanesulfonyl-phenyl)-[5-(tetrahydro-pyran-4-yl)-1,3-dihydro-isoindol-2-yl]-methanone] was investigated in the rat brain.
Male Wistar rats were used for these experiments. Rats were sacrificed; their brains were rapidly removed, frozen in dry ice powder. Ten μm-thick sagittal sections were cut in a Cryostat and thaw-mounted on adhesion glass slides. Brain sections were first incubated for 10 min. in Ringer buffer (NaCl 120 mM, KCl 5 mM, CaCl2 2 mM, MgCl2 1 mM, Tris-HCl 50 mM pH 7.4) at 37° C. and then for 60 min. in Ringer buffer at 37° C. containing either [^3H]5-Methanesulfonyl-2-((S)-2,2,2-trifluoro-1-methyl-ethoxy)-phenyl]-[5-(tetrahydro-pyran-4-yl)-1,3-dihydro-isoindol-2-yl-methanone or [^3H]-[2-Isopropoxy-5-methanesulfonyl-phenyl)-[5-(tetrahydro-pyran-4-yl)-1,3-dihydro-isoindol-2-yl]-methanone] at concentration 1 nM. For the evaluation of the non-specific-binding (NSB) of the radiotracer an additional group of sections was incubated with Ringer buffer containing the radiotracer and the reference GlyT1 inhibitor Org 24598 at the concentration 10 μM (60 in at 37° C.). At the end of the incubation, sections were rinsed 2×5 min. and 1×15 min. in ice-cold (4° C.) Ringer buffer and then rapidly dipped three times in distilled water at 4° C. Slide-mounted brain sections were dried under a flow of cold air and exposed together with [^3H]-microscale to a Fuji Imaging plate for 5 days. […] The total amount of radiotracer bound to the brain areas of interest (TB) were measured using the MCID image analysis program and expressed as fmol of bound radiotracer/mg of protein. The amount of [^3H]5-Methanesulfonyl-2-((S)-2,2,2-trifluoro-1-methyl-ethoxy)-phenyl]-[5-(tetrahydro-pyran-4-yl)-1,3-dihydro-isoindol-2-yl]-methanone specifically bound to the GlyT1 carrier (SB) was calculated according to the formula: SB=TB−NSB.

[4] = Preliminary pharmacokinetic experiments and modeling (blocker infusion); type: in vivo, baboon; conditions: intravenous infusion 0.2 mg/kg then 0.5 mg/kg
Experimental: Each animal received two sequential administrations of the radiotracer on the same day. The first administration of radiotracer was used to determine radiotracer baseline uptake. Following the baseline scan, the baboon received an intravenous administration of unlabeled [5-methanesulfonyl-2-((S)-2,2,2-trifluoro-1-methyl-ethoxy)-phenyl]-[5-(tetrahydro-pyran-4-yl)-1,3-dihydro-isoindol-2-yl]-methanone (blocker). The blocker infusion started 20 min before (the second) radiotracer injection. The blocker was first infused at dose=0.2 mg/kg. After 10 min, the flow rate was changed to deliver 0.5 mg/kg for the remainder 100 min of the study.

GlyT1 transporter [5] = test: PET imaging with pharmacological challenges (blocking of radiotracer uptake); type: in vivo, baboon (papio anubis); conditions: intravenous infusion 0.2 mg/kg, after 10 min 0.5 mg/kg for remainder 100 min; started 20 min before radiotracer
Experimental: as §1, with “fixation. A 6 min transmission scan with a 1 mCi Cs-137 point source was initially done for attenuation correction.” for “fixation.”

**Q.** For CC(C)Oc1ccc(S(C)(=O)=O)cc1C(=O)N1Cc2ccc(C3CCOCC3)cc2C1 [(2-isopropoxy-5-methanesulfonyl-phenyl)-[5-(tetrahydro-pyran-4-yl)-1,3-dihydro-isoindol-2-yl]-methanone], which IC50 (GlyT1 transporter [1]) is on record?
**A.** 14 nM

**Q.** Which “brain uptake of radiotracer” value [2] does the source give for C[C@H](Oc1ccc(S([11CH3])(=O)=O)cc1C(=O)N1Cc2ccc(C3CCOCC3)cc2C1)C(F)(F)F [Example 2, [^11C-methyl]-[5-Methanesulfonyl-2-((S)-2,2,2-trifluoro-1-methyl-ethoxy)-phenyl]-[5-(tetrahydro-pyran-4-yl)-1,3-dihydro-isoindol-2-yl]-methanone] here?
**A.** rapidly taken up in multiple brain areas

**Q.** With CC(C)Oc1ccc(S([11CH3])(=O)=O)cc1C(=O)N1Cc2ccc(C3CCOCC3)cc2C1 [Example 4, [^11C-methyl]-(2-Isopropoxy-5-methanesulfonyl-phenyl)-[5-(tetrahydro-pyran-4-yl)-1,3-dihydro-isoindol-2-yl]-methanone] as the compound, how does the “brain uptake of radiotracer” value [2] read?
**A.** rapidly taken up in multiple brain areas

**Q.** Which “effect of co-incubation on binding of both [3H] radiotracers to rat brain sections” value (GlyT1 transporter [3]; high concentrations of inhibitor (Org 24598 10 μM), radiotracers 1 nM) does the source give for CN(CC[C@@H](Oc1ccc(C(F)(F)F)cc1)c1ccccc1)CC(=O)O [Org 24598] here?
**A.** completely abolished binding

**Q.** Which “plasma levels during the PET scan time interval” value [4] does the source give for C[C@H](Oc1ccc(S(C)(=O)=O)cc1C(=O)N1Cc2ccc(C3CCOCC3)cc2C1)C(F)(F)F [[5-methanesulfonyl-2-((S)-2,2,2-trifluoro-1-methyl-ethoxy)-phenyl]-[5-(tetrahydro-pyran-4-yl)-1,3-dihydro-isoindol-2-yl]-methanone] here?
**A.** constant plasma levels

**Q.** And the “effect of pretreatment with cold blocker on specific uptake of both [11C] radiotracers in brain” value (GlyT1 transporter [5])?
**A.** completely blocked the specific uptake

**Q.** And the IC50 (GlyT1 transporter [1])?
**A.** 28 nM

**Q.** Which “distribution of the binding sites in rat brain sections” value (GlyT1 transporter [3]) does the source give for “[3H-methyl]-[5-Methanesulfonyl-2-((S)-2,2,2-trifluoro-1-methyl-ethoxy)-phenyl]-[5-(tetrahydro-pyran-4-yl)-1,3-dihydro-isoindol-2-yl]-methanone [Example 1]” here?
**A.** corresponded to the known distribution of the GlyT1 transporter

**Q.** For “[^3H-methyl]-(2-Isopropoxy-5-methanesulfonyl-phenyl)-[5-(tetrahydro-pyran-4-yl)-1,3-dihydro-isoindol-2-yl]-methanone [Example 3]”, which “distribution of the binding sites in rat brain sections” value (GlyT1 transporter [3]) is on record?
**A.** corresponded to the known distribution of the GlyT1 transporter
